Laboratory results: US10280170B2, “Substituted 4,5,6,7-tetrahydro-pyrazolo[1,5-a]pyrazine derivatives and 5,6,7,8-tetrahydro-4H-pyrazolo[1,5-a][1,4]diazepine derivatives as Ros1 inhibitors” (Janssen Pharmaceutica NV, priority 2014, dated 2019)
Read-outs that look alike come from different tables or passages of the source.

Legend:
[1] = target: Ba/F3 cells containing Ros1 with a mutation at the gatekeeper residue (L2026M) (Homo sapiens, UniProt P08922, L2026M, cells depend on it, form not given); assay: Ba/F3-Ros1 cell proliferation assay, L2026M gatekeeper mutant; type: cell-based, murine; details: without IL-3
Chain of Ba/F3 cells containing Ros1 with a mutation at the gatekeeper residue (L2026M) (P08922 whole entry L2026M, form open): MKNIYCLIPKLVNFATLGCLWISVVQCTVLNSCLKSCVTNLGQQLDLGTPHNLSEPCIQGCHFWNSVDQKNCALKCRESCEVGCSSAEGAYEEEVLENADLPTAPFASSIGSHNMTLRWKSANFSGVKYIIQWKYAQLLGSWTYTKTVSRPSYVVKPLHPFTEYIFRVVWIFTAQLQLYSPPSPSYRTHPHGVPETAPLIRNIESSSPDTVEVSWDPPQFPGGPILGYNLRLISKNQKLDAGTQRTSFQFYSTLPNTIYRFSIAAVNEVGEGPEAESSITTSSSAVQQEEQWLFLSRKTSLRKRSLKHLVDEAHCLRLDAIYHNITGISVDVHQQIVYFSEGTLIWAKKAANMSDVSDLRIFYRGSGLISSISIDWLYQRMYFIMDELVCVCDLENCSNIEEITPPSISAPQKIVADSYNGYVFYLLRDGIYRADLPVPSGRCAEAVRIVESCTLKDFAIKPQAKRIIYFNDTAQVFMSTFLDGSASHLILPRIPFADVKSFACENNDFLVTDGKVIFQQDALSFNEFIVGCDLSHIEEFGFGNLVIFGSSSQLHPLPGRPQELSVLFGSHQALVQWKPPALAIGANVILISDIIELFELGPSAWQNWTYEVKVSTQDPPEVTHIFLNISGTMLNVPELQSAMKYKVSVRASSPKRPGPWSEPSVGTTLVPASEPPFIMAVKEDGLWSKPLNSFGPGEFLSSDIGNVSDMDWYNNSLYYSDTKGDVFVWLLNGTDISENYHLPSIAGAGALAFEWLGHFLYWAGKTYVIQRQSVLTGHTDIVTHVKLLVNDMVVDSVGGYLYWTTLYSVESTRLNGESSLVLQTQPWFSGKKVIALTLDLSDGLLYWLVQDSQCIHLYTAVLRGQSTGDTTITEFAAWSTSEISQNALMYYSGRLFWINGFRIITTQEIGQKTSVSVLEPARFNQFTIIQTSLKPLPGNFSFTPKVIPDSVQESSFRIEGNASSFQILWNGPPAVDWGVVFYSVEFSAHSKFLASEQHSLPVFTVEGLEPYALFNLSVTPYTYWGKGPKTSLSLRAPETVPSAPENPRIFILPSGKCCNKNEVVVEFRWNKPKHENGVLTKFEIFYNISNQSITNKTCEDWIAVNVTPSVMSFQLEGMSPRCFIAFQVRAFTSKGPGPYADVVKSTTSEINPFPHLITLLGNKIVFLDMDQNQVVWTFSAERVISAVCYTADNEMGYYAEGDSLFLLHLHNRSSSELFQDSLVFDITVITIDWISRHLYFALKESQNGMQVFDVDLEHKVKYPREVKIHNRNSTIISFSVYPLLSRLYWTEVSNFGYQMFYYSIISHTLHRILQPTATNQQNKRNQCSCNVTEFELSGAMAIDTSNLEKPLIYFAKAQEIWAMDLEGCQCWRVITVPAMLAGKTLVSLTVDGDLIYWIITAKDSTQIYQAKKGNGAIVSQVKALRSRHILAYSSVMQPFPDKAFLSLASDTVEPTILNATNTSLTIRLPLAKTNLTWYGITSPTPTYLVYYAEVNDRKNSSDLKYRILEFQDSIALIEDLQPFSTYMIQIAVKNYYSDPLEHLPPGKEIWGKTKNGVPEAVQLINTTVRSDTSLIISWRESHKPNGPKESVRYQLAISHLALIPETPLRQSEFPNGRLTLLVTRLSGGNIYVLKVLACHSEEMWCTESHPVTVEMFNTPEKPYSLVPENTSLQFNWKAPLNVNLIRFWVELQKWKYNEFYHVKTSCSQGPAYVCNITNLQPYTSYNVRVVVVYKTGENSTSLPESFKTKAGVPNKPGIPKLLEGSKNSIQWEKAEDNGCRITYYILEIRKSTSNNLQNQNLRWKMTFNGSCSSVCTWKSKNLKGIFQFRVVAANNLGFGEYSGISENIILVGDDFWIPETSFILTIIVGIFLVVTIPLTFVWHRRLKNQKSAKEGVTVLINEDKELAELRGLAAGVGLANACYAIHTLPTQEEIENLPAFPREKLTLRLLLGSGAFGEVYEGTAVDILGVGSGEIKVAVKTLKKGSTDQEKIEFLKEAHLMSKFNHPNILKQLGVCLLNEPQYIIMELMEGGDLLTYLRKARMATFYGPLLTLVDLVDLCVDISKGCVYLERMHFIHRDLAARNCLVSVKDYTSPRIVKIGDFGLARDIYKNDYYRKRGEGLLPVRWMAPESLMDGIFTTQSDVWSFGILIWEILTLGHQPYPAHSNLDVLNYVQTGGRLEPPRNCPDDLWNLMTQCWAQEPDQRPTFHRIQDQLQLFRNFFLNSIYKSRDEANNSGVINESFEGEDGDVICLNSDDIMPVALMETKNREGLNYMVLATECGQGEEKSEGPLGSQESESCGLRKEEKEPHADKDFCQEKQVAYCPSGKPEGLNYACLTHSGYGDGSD
How it was run: (§1)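 20000 Ba/F3-Ros1 cells/well (WT, L2026M, G2032R), RPMI-1640 phenol red free + 10% FBS + 2 mM Gln, cpds from DMSO; 24 h, 37 °C, 5% CO2. Alamar Blue 4 h, RFU ex540/em590.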

[2] = target: T1, Ros1 enzyme (Homo sapiens, UniProt P08922); assay: Ros1 enzymatic assay; type: biochemical; details: Ros1 enzymatic assay; read-out: ROS1 pIC50 (converted)
T1 construct: 0.5 μg/ml Ros1 enzyme
T1 sequence (P08922 28-2347): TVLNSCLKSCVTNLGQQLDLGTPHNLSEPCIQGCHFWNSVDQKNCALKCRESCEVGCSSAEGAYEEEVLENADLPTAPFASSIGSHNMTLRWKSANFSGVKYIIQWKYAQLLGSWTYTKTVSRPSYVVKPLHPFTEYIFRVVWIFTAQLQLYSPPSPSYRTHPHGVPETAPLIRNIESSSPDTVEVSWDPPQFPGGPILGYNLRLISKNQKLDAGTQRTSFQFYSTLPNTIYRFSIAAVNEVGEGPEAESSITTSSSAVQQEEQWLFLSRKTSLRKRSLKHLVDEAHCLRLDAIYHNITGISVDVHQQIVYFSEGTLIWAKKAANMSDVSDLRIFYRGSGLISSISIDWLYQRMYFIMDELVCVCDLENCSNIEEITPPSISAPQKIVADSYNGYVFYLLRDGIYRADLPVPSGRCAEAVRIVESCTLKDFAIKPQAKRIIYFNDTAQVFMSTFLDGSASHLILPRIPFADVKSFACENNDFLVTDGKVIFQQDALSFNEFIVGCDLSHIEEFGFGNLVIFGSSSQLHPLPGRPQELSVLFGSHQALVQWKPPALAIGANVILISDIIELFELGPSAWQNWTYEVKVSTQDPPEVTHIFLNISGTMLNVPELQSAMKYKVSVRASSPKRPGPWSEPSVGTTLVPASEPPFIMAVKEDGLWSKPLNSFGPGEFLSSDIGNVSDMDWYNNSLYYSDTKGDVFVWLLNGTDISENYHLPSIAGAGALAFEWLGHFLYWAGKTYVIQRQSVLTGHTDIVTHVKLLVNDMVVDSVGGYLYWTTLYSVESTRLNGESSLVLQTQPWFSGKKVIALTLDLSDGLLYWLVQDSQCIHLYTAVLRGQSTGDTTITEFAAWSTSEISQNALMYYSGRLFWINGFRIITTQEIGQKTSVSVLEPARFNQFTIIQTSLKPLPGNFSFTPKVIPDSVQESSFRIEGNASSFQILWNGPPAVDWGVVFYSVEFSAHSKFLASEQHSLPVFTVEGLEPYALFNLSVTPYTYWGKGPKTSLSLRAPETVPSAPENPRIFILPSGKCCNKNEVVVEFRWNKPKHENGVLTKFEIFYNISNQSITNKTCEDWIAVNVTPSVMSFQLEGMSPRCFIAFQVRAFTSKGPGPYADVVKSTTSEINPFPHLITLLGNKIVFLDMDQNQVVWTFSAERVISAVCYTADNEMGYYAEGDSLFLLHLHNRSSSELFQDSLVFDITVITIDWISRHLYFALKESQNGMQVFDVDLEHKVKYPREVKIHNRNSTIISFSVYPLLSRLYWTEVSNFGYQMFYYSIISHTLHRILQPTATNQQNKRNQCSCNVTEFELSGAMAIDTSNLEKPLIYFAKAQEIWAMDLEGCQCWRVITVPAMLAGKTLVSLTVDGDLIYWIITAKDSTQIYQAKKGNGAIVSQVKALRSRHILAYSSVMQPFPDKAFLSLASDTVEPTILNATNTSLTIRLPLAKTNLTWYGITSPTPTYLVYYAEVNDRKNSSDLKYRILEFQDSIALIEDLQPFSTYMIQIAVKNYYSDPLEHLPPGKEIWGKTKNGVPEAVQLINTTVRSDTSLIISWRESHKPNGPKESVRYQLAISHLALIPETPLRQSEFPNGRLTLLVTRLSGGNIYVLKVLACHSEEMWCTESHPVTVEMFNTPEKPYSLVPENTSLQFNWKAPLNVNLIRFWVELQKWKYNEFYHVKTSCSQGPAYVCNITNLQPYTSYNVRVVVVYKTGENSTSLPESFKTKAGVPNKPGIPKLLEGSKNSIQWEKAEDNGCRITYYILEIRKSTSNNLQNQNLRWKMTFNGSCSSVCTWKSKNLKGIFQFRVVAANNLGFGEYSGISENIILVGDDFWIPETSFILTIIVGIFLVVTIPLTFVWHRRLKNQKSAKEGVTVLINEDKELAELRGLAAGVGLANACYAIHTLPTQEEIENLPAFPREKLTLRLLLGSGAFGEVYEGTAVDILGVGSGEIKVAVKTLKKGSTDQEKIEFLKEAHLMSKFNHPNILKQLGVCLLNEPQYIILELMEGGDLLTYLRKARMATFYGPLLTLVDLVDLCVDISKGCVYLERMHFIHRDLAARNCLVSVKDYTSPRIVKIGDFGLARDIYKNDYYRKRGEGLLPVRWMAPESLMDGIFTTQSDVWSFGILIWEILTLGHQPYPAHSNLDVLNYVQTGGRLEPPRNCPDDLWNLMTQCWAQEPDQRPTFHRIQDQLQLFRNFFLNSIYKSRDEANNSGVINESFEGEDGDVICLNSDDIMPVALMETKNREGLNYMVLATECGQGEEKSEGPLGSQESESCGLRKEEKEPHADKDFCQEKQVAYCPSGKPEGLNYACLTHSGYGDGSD
How it was run: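 First, compounds meet Ros1 enzyme mix plus substrate mix containing IRS-Tide and 33P-labelled ATP at 20 μM. Next, incubation lasts 120 minutes at room temperature. Then EDTA stop buffer with streptavidin beads is added for 15 minutes, and bead-bound radioactivity is imaged.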

[3] = test system: HCC78 non-small cell lung cancer cells; assay: HCC78 cell proliferation assay; type: cell-based; details: Homo sapiens, HCC78, 96 h, read-out: HCC-78 PROL pEC50 (converted)
How it was run: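 HCC78 NSCLC cells (~1000/well) in RPMI-1640 with 10% FBS were treated 24 h after seeding and exposed to compound for 4 days at 37 °C. Viability was read by MTT, with absorbance at 538 nm after DMSO/glycine solubilization.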

[4] = target: T2, Ba/F3 cells containing Ros1 wild-type protein (Homo sapiens, UniProt P08922, cells depend on it, form not given); assay: Ba/F3-Ros1 cell proliferation assay, wild-type Ros1; type: cell-based, murine; details: without IL-3
T2 construct: The background only speaks of 'a number of different unrelated proteins' and names SLC34A2-ROS1 for HCC78 cells
T2 sequence (P08922 whole entry, stated change not applied): as the sequence (P08922 whole entry L2026M, form open) above, with M2026L counted along it
How it was run: as §1

[5] = test system: Ba/F3 cells containing Ros1 wild-type protein + IL-3; assay: Ba/F3-Ros1 cell proliferation counter-screen, wild-type protein in the presence of 10 ng/ml murine IL-3; type: cell-based; details: Mus musculus, BaF3, 24 h, read-out: BaF3-ROS1 + IL3 pIC50 (converted)
How it was run: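 Compounds were dispensed from DMSO into plates, and 20000 Ba/F3 cells carrying wild-type Ros1 were added in phenol red-free RPMI-1640 with 10% FBS plus 10 ng/ml murine IL-3. After 24 h at 37 °C, Alamar Blue was added for 4 h and fluorescence recorded.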

[6] = counter-screen, wild-type, 10 ng/ml murine IL-3

EC50 ([3]; HCC78 cells, 4 days, MTT)	Structure (SMILES)	Ba/F3 Ros1 L2026M (-IL-3) pIC50 [1]	IC50 [2]	EC50 [3]	melting point	BaF3-ROS1-IL3 pIC50 [4]	CC50 [5]	CC50 [5, 6]
–	CC(C)c1ccc(COc2ccc(-c3c(-c4ccncc4)nn4c3C(=O)NCC4)c(Cl)c2)cc1 [Compound 24]	8.2	7.94 nM	1.58 nM	267 °C	7.8	> 10000 nM	–
316 nM	CC(C)c1ccc(COc2ccc(-c3c(-c4ccncn4)nn4c3C(=O)N(CC(O)CO)CC4)cc2)cc1 (stereo not drawn) [Compound 161]	6.7	50.1 nM	–	209 °C	7.1	–	> 10000 nM
–	O=C1c2c(-c3ccc(OCc4ccc(C5CC5)cc4)cc3)c(-c3ccncn3)nn2CCN1CCO [Compound 167]	6.2	126 nM	501 nM	170 °C	7.2	> 10000 nM	–
–	Cc1cc(-c2c(-c3ccncc3)nn3c2C(=O)N(CCO)CC3)cc(C)c1OCc1ccc(C(C)C)cc1 [Compound 30]	<5	> 10000 nM	> 10000 nM	170 °C	<5	> 10000 nM	–
–	CC(C)OCC(O)CN1CCn2nc(-c3ccncc3)c(-c3ccc(OCc4ccc(C(C)C)cc4)cc3)c2C1=O (stereo not drawn) [Compound 45]	6.6	158 nM	1260 nM	148 °C	6.7	> 10000 nM	–
–	CC(C)c1ccc(COc2ncc(-c3c(-c4ccncc4)nn4c3C(=O)NCC4)cn2)cc1 [Compound 75]	7.5	12.6 nM	63.1 nM	126 °C	7.9	> 10000 nM	–
–	CC(C)c1ccc(COc2ccc(-c3c(-c4ccncc4)nn4c3C(=O)N(CCO)CC4)c(F)c2F)cc1 [Compound 20]	7.0	100 nM	1580 nM	138 °C	6.9	> 10000 nM	–
–	COCCOc1cc(COc2ccc(-c3c(-c4ccncc4)nn4c3C(=O)NCC4)cc2)ccc1C(C)C [Compound 90]	7.4	79.4 nM	158 nM	209 °C	7.2	> 10000 nM	–
20 nM	CC(C)c1ccc(COc2ccc(-c3c(-c4ccnc5[nH]ccc45)nn4c3C(=O)N(CCO)CC4)cc2)cc1 [Compound 156]	7.0	63.1 nM	–	219 °C	8.0	–	> 10000 nM
–	O=C1c2c(-c3ccc(OCc4ccc(OC(F)(F)F)cc4)cc3)c(-c3ccncc3)nn2CCN1CCO [Compound 117]	6.9	126 nM	251 nM	134 °C	7.0	> 10000 nM	–
–	CC(C)c1ccc(COc2ccc(-c3c(-c4ccncc4)nn4c3C(=O)N(CCO)CC4)cc2)cc1C#N [Compound 87]	7.2	39.8 nM	200 nM	160 °C	7.3	> 10000 nM	–
501 nM	CC(O)CN1CCn2nc(-c3ccncc3)c(-c3ccc(OCc4ccc(C(C)C)cc4)cc3)c2C1 (stereo not drawn) [Compound 191]	7.0	158 nM	–	148 °C	6.9	–	> 10000 nM
–	CC(C)c1ccc(COc2cnc(-c3c(-c4ccncc4)nn4c3C(=O)NCC4)cn2)cc1 [Compound 76]	7.0	251 nM	794 nM	225 °C	6.8	> 10000 nM	–
